In brackets after ≈: the same amount, converted by molar mass.
Key:
[1] = Pharmacokinetics of IV formulation in humans (Phase I, advanced solid tumors); format: in vivo; conditions: human, plasma, IV infusion approx. 2 hour
Text: IV formulations of the invention were used in an open-label Phase I human study evaluating the safety and pharmacokinetics of N-(4-{4-amino-7-[1-(2-hydroxyethyl)-1H-pyrazol-4-yl]thieno[3,2-c]pyridin-3-yl}phenyl)-N′-(3-fluorophenyl)urea as monotherapy in subjects with advanced solid tumors, i.e., mixture of polyethylene glycol 300, polyoxyl 35 castor oil, and ethanol in a ratio of 45:45:10% w/w, and N-(4-{4-amino-7-[1-(2-hydroxyethyl)-1H-pyrazol-4-yl]thieno[3,2-c]pyridin-3-yl}phenyl)-N′-(3-fluorophenyl)urea, wherein the N-(4-{4-amino-7-[1-(2-hydroxyethyl)-1H-pyrazol-4-yl]thieno[3,2-c]pyridin-3-yl}phenyl)-N′-(3-fluorophenyl)urea is present in a concentration of about 6 mg/mL.
The number of subjects that entered the studies and completed at least a portion of the studies are noted. Subjects entered the study and were assigned to receive one of the following doses: 8 mg, 16 mg, or 32 mg.
Doses were administered on Day 1 and Day 15 of each 28 day cycle with an approximately 2 hour infusion. On Day 1 and Day 15, plasma samples are collected at time 0 (prior to infusion), 1 h 55 min (just before the end of the infusion), and at 0.5, 1, 2, 4, 6, 8, 10, 24 hours post the end of infusion. The plasma concentrations of N-(4-{4-amino-7-[1-(2-hydroxyethyl)-1H-pyrazol-4-yl]thieno[3,2-c]pyridin-3-yl}phenyl)-N′-(3-fluorophenyl)urea were determined, and the values for the pharmacokinetic parameters were calculated and shown in Table 7.

[2] = Solubility of free base in various media; format: physicochemical
Text: Solubility of N-(4-{4-amino-7-[1-(2-hydroxyethyl)-1H-pyrazol-4-yl]thieno[3,2-c]pyridin-3-yl}phenyl)-N′-(3-fluorophenyl)urea Free Base in Various Media

[3] = Solubility of free base in PEG-300/Cremophor EL/Ethanol vehicles; format: physicochemical
Text: Solubility of N-(4-{4-amino-7-[1-(2-hydroxyethyl)-1H-pyrazol-4-yl]thieno[3,2-c]pyridin-3-yl}phenyl)-N′-(3-fluorophenyl)urea Free Base in PEG-300/Cremophor EL/Ethanol Vehicles

[4] = 8 mg, 8 mg, Study Day 1, mean ± SD, N 4
[5] = 8 mg, 8 mg, Study Day 15, mean ± SD, N 4
[6] = 16 mg, 16 mg, Study Day 15, N 1
[7] = 32 mg, 32 mg, Study Day 1, mean, N 2
[8] = 32 mg, 32 mg, Study Day 15, mean, N 2

For `Nc1ncc(-c2cnn(CCO)c2)c2scc(-c3ccc(NC(=O)Nc4cccc(F)c4)cc3)c12` [API, N-(4-{4-amino-7-[1-(2-hydroxyethyl)-1H-pyrazol-4-yl]thieno[3,2-c]pyridin-3-yl}phenyl)-N′-(3-fluorophenyl)urea], which half-life ([1]; 8 mg, 8 mg, Study Day 1, harmonic mean ± pseudo SD, N 4) is on record?
Its half-life is 10.7 ± 8.3 h.

What about the AUC(0-inf) [1, 4] of the same compound?
The AUC(0-inf) was 2960 ± 1540 ng·h/mL.

And the Cmax [1, 4]?
Its Cmax is 235 ± 82.1 ng/mL.

What about the Tmax [1, 4] of the same compound?
Its Tmax is 1.9 h.

What about the half-life ([1]; 8 mg, 8 mg, Study Day 15, harmonic mean ± pseudo SD, N 4) of the same compound?
The half-life was 14.1 ± 7.4 h.

What about the AUC(0-inf) [1, 5] of the same compound?
Its AUC(0-inf) is 2940 ± 1630 ng·h/mL.

What about the Cmax [1, 5] of the same compound?
Its Cmax is 246 ± 107 ng/mL.

And the Tmax [1, 5]?
Its Tmax is 1.9 h.

And the AUC(0-inf) ([1]; 16 mg, 16 mg, Study Day 1, N 1)?
Its AUC(0-inf) is 2350 ng·h/mL.

And the Cmax ([1]; 16 mg, 16 mg, Study Day 1, N 1)?
Its Cmax is 366 ng/mL.

And the Tmax ([1]; 16 mg, 16 mg, Study Day 1, N 1)?
The Tmax was 2.5 h.

And the half-life ([1]; 16 mg, 16 mg, Study Day 1, N 1)?
The half-life was 9.8 h.

And the AUC(0-inf) [1, 6]?
The AUC(0-inf) was 3690 ng·h/mL.

And the Cmax [1, 6]?
The Cmax was 736 ng/mL.

And the Tmax [1, 6]?
Its Tmax is 1.9 h.

What about the half-life [1, 6] of the same compound?
The half-life was 12.6 h.

And the half-life ([1]; 32 mg, 32 mg, Study Day 1, harmonic mean, N 2)?
Its half-life is 8.9 h.

And the AUC(0-inf) [1, 7]?
Its AUC(0-inf) is 8730 ng·h/mL.

What about the Cmax [1, 7] of the same compound?
Its Cmax is 1310 ng/mL.

What about the Tmax [1, 7] of the same compound?
The Tmax was 1.9 h.

What about the half-life ([1]; 32 mg, 32 mg, Study Day 15, harmonic mean, N 2) of the same compound?
Its half-life is 11.3 h.

And the AUC(0-inf) [1, 8]?
The AUC(0-inf) was 8620 ng·h/mL.

What about the Cmax [1, 8] of the same compound?
Its Cmax is 1370 ng/mL.

And the Tmax [1, 8]?
The Tmax was 2.2 h.

And the solubility ([2]; 10% Cremophor EL in water, aqueous with cosolvent or surfactant or cyclodextrin, read-out: Solubility)?
Its solubility is 106 µg/mL (≈ 217 µM).

And the solubility ([2]; 10% Polysorbate 80 in water, aqueous with cosolvent or surfactant or cyclodextrin, read-out: Solubility)?
Its solubility is 146 µg/mL (≈ 299 µM).

What about the solubility ([2]; 10% Solutol HS in water, aqueous with cosolvent or surfactant or cyclodextrin, read-out: Solubility) of the same compound?
Its solubility is 152 µg/mL (≈ 311 µM).

What about the solubility ([2]; Cremophor EL, organic solvent or mixture, Cremphor EL, read-out: Solubility) of the same compound?
The solubility was 7100 µg/mL (≈ 14500 µM).

What about the solubility ([2]; DMA, organic solvent or mixture, read-out: Solubility) of the same compound?
Its solubility is 35000 to 50000 µg/mL (≈ 71600 to 102000 µM).

What about the solubility ([2]; Ethanol, organic solvent or mixture, read-out: Solubility) of the same compound?
The solubility was 130 µg/mL (≈ 266 µM).

What about the solubility ([2]; PEG 300, organic solvent or mixture, read-out: Solubility) of the same compound?
Its solubility is 20000 µg/mL (≈ 40900 µM).

And the solubility ([2]; PEG 400, organic solvent or mixture, read-out: Solubility)?
The solubility was 20900 µg/mL (≈ 42800 µM).

And the solubility ([2]; Polysorbate 80, organic solvent or mixture, read-out: Solubility)?
The solubility was 2500 µg/mL (≈ 5120 µM).

And the solubility ([2]; Propylene Glycol, organic solvent or mixture, read-out: Solubility)?
Its solubility is 1200 µg/mL (≈ 2460 µM).

What about the solubility ([2]; Water (across physiological pH range), read-out: Solubility) of the same compound?
The solubility was < 0.03 µg/mL.

What about the solubility ([2]; water, pH 7.4, aqueous buffer, read-out: solubility in water) of the same compound?
Its solubility is < 0.03 µg/mL.

And the solubility ([3]; PEG-300/Cremophor EL/Ethanol 42.5/42.5/15, organic solvent or mixture, PEG-300/Cremophor EL/Ethanol ratio 42.5/42.5/15, 5° C., read-out: Solubility (mg/mL) at 5° C.)?
Its solubility is 11.9 mg/mL.

What about the solubility ([3]; PEG-300/Cremophor EL/Ethanol 42.5/42.5/15, organic solvent or mixture, PEG-300/Cremophor EL/Ethanol ratio 42.5/42.5/15, RT, read-out: Solubility (mg/mL) at RT) of the same compound?
Its solubility is 10 mg/mL.

What about the solubility ([3]; PEG-300/Cremophor EL/Ethanol 45/45/10, organic solvent or mixture, PEG-300/Cremophor EL/Ethanol ratio 45/45/10, 5° C., read-out: Solubility (mg/mL) at 5° C.) of the same compound?
Its solubility is 14.1 mg/mL.

And the solubility ([3]; PEG-300/Cremophor EL/Ethanol 45/45/10, organic solvent or mixture, PEG-300/Cremophor EL/Ethanol ratio 45/45/10, RT, read-out: Solubility (mg/mL) at RT)?
Its solubility is 11.6 mg/mL.

What about the solubility ([3]; PEG-300/Cremophor EL/Ethanol 47.5/47.5/5, organic solvent or mixture, PEG-300/Cremophor EL/Ethanol ratio 47.5/47.5/5, 5° C., read-out: Solubility (mg/mL) at 5° C.) of the same compound?
Its solubility is 16.4 mg/mL.

And the solubility ([3]; PEG-300/Cremophor EL/Ethanol 47.5/47.5/5, organic solvent or mixture, PEG-300/Cremophor EL/Ethanol ratio 47.5/47.5/5, RT, read-out: Solubility (mg/mL) at RT)?
Its solubility is 13 mg/mL.

Reference: patent US20150126545A1, “COMPOSITIONS CONTAINING KINASE INHIBITORS” (AbbVie Inc., priority 2011, published 2015)
